Experiment [1] has as its target muscarinic cholinergic receptors. Nature of the experiment: ^3H-oxotremorine-M binding inhibition. The conditions noted are these: inhibition of binding of ^3H-oxotremorine-M; read-out: inhibition costant (Ki).
A further experiment addresses m4 receptors (Homo sapiens, UniProt P08173). The class given is cell-based. The conditions noted are these: CHO m4 cells treated with pertussis toxin.

Chain of m4 receptors (P08173 whole entry): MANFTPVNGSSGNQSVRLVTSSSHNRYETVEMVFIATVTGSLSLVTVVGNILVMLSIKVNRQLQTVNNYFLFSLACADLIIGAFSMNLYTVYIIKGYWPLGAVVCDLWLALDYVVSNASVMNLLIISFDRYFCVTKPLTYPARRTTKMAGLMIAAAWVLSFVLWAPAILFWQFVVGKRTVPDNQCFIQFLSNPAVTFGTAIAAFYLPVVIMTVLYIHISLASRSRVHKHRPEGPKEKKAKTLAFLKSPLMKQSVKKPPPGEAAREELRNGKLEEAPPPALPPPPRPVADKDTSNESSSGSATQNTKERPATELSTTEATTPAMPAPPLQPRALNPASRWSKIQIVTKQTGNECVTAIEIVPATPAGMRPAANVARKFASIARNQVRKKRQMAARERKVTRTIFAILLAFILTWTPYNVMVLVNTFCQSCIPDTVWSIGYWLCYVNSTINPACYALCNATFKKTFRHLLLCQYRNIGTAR

Regarding `CCCCCCOc1nsnc1C1=CCCN(C)C1` [Xanomeline, 3-(4-hexyloxy-1,2,5-thiadiazol-3-yl)-1,2,5,6-tetrahydro-1-methylpyridine], the inhibition constant (Ki) in experiment [1] is 2 nM. At m4 receptors, the “formation of cAMP” value was “efficaciously and potently stimulated the formation of cAMP”.

The values are drawn from patent publication EP0821957A2 (priority 1996, dated 1998).
